From US8227207B2, “Bioactive peptides derived from the proteins of egg white by means of enzymatic hydrolysis” (Consejo Superior de Investigaciones Cientifcas, priority 2004, dated 2012)
Entries after “also recorded” stand apart in the source; their conditions may differ. Residues, ends and D or L forms follow the SMILES beside them.

Columns and labels:
[1] = biological target: T1, angiotensin converting enzyme (ACE, EC 3.4.15.1) (Oryctolagus cuniculus, UniProt P12822); type: biochemical; details: for IC50: read-out: ACEI activity IC50, synthetic peptides; for ACEI activity in vitro (in words): peptides
T1 sequence (P12822 34-1310): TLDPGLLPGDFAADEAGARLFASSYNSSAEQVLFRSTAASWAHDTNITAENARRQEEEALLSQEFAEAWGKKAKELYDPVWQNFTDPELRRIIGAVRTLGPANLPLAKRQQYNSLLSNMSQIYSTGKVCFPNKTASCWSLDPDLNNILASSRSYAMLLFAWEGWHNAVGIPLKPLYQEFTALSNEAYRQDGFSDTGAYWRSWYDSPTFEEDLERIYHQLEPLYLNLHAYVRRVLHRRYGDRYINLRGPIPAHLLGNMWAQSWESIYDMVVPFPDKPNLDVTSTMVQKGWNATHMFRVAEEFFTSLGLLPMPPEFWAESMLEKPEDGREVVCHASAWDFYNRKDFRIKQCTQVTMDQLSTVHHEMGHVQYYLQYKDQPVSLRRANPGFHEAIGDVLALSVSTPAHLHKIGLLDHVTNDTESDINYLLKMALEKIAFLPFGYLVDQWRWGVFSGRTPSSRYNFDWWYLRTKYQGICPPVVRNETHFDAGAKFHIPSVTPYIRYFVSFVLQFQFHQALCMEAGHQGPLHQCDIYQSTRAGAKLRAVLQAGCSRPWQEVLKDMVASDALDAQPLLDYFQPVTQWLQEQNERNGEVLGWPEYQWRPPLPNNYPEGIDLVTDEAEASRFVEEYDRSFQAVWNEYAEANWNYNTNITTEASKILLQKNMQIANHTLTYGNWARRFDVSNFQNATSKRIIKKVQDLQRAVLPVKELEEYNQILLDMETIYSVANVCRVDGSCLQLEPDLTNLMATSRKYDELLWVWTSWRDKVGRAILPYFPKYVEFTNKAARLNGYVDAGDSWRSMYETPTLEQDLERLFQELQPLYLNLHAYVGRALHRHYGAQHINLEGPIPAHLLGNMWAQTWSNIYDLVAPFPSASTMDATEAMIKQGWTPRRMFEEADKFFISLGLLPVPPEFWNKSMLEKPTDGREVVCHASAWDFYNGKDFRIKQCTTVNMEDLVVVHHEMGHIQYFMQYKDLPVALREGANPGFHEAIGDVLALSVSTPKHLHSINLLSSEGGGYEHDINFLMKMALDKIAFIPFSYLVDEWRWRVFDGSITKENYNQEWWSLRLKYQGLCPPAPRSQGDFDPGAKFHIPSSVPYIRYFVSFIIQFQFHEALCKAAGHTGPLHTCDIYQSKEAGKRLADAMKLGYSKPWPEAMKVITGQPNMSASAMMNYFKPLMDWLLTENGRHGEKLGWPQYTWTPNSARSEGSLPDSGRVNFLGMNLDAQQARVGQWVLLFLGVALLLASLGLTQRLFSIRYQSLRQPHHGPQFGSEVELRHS
Experimental: The inhibitory activity of the angiotensin converting enzyme (ACE) is measured in vitro according to the method of D. W. Cushman and H. S. Cheung (Spectrophotometric assay and properties of the angiotensin-converting enzyme of rabbit lung. Biochemical Pharmacology, 1971, 20: 1637-1648), later on modified by Y. K. Kim, S. Yoon, D. Y. Yu, B. Lönnerdal and B. H. Cheung (Novel angiotensin-I-converting enzyme inhibitory peptides derived from recombinant human αs1-casein expressed in Escherichia coli, Journal of Dairy Research 1999, 66, 431-439).
The substrate hippuryl histidyl leucine (HHL, Sigma Chemicals Co., St. Louis, Mo., USA) is dissolved in a 0.1 M borate buffer with 0.3 M NaCl pH 8.3 to obtain a final concentration of 5 mM. To 100 μl of substrate are added 40 μl of each of the samples whose ACEI activity it is wished to determine. The ACE enzyme (EC 3.4.15.1, Sigma) is added, dissolved in 50% glycerol and diluted 1/10 in bidistilled water at the moment of conducting the assay. The reaction is carried out at 37° C. for 30 minutes in a water-bath. The enzyme is deactivated by lowering the pH with 150 μl of 1 N HCl. The hippuric acid formed is extracted with 1000 μl of ethyl acetate. Following vortex stirring for 20 seconds, it is centrifuged at 4000 rpm for 10 minutes at room temperature. 750 μl of the organic phase are taken and evaporated by heating at 95° C. for 10 minutes. The hippuric acid residue is redissolved in 800 μl of bidistilled water and, following stirring for 20 seconds, the absorbency at 228 nm is measured in a Dur-70 spectrophotometer from Beckman Instruments, Inc., Fullerton, USA.
In order to calculate the percentage of ACEI activity, the following formula is used
The blank is used for correcting the background absorbency. This contains substrate, enzyme and 20 μl of bidistilled water in place of the sample, and the reaction is halted at zero time. The control implies a hundred percent of the enzymatic action on the substrate in the absence of inhibitors and contains 20 μl of water in place of the sample and is incubated the same time as the sample.
The results are presented as the IC50 (μM or μg/ml) or concentration at which 50% of the enzyme's activity is inhibited. The concentration of protein is determined by means of the bicinchonomic acid (BCA) assay (Pierce, Rockford, Ill., USA) using bovine seroalbumin as reference.

[2] = tested on: Wistar-Kyoto rats (WKY); test: Systolic arterial pressure (tail cuff) in normotense Wistar-Kyoto rats; type: in vivo, rat; details: highest dose used, intragastric probe
Experimental: (§1) The effect is studied of various identified peptides and of some products containing them (for example egg white hydrolysed with pepsin for 3 hours and the fraction of it less than 3000 Da) on the arterial pressure of spontaneously hypertensive rats (SHR) and Wistar-Kyoto rats (WKY) which are the normotense controls for the SHR.
(§2) This study is conducted with SHR (10) and WKY of 17-24 weeks old and weight between 300 and 350 g, coming from Charles River Laboratories España, S. A. The rats are kept in cages of five by five and maintained at a stable temperature of 25° C. with light-dark cycles of 12 hours, ingesting freely available water and food. In order to carry out the measurement of systolic arterial pressure (SAP) “tail cuff” equipment is used (Le5001, Letica) which automatically provides a digital value of the SAP and records and facilitates the cardiac frequency of the animals. Various measurements are made and the average of all of them is obtained in order to achieve a reliable value of the SAP. Before positioning the cuff and transducer in the tail of the rats, the rats are exposed to a temperature of close to 30° C. in order to facilitate dilation of the caudal artery. Also, in order to ensure the reliability of the measurement, the animals are made to get used to the procedure for two weeks prior to conducting each assay in question.
(§3) The administration of the products to be assayed is done by means of an intragastric probe in a time margin of between 9 and 10 o'clock in the morning. The SHR used for the study had SAP values of between 230 and 280 mm Hg. The WKY used for the study at that moment had SAP values of between 160 and 200 mm Hg. Measurements of the SAP were taken from the animals periodically, every 2 hours, up to 8 hours post-administration of the products to be assayed; in addition, a SAP measurement was taken 24 hours after the administration of those products. As negative control (in order to establish the circadian variation of the SAP in probed rats) the measurements of the SAP obtained in rats which had been administered 1 ml of water by means of intragastric probe were used. As positive control, the measurements of the SAP obtained in rats which had been administered 50 mg/kg of Captopril (prototype ACEI drug) by means of intragastric probe were used. This dose of Captopril was administered to each rat in a volume of 1 ml. In order to establish the effect of the unhydrolysed egg white on the arterial pressure of the animals, similar assays to those described above were conducted, in which the animals were treated by the same procedure with 200 mg/kg of previously freeze-dried egg white (reference).
The results obtained are grouped and the mean±the standard error of measurement (SEM) is obtained for a minimum of 9 homogenous assays. […]

[3] = tested on: spontaneously hypertensive rats (SHR); test: Antihypertensive activity: systolic arterial pressure (tail cuff) in spontaneously hypertensive rats; type: in vivo, rat; details: for time of maximum drop in SAP after administration: intragastric probe; for drop in systolic arterial pressure (SAP) / anti-hypertensive activity (in words): single administration by intragastric probe
Experimental: as §1, §2, §3
The results obtained are grouped and the mean±the standard error of measurement (SEM) is obtained for a minimum of 9 homogenous assays. The data of the treated animals are always compared with the data deemed to be a negative control. In order to compare them and obtain the statistical significance, Student's t-test for unpaired data is used and the difference for values of p<0.05 is considered significant.

`CC[C@H](C)[C@H](NC(=O)[C@H](CCC(N)=O)NC(=O)[C@@H](N)Cc1ccc(O)cc1)C(=O)NCC(=O)N[C@@H](CC(C)C)C(=O)O` [SEQ. ID. N^o 1, YQIGL] (H-YQIGL-OH; N-terminus and C-terminus assumed) gave an IC50 [1] of 174 µM.

For `CC[C@H](C)[C@H](N)C(=O)N[C@H](C(=O)N[C@@H](Cc1ccccc1)C(=O)O)C(C)C` [SEQ. ID. N^o 2, IVF], the “change in SAP in normotense rats (in words)” value [2] was “not in normotensed Wistar-Kyoto rats; also recorded: none of these compounds modifies the SAP”, the “time of maximum drop in SAP after administration” value [3] was 6 h and the “drop in systolic arterial pressure (SAP) / anti-hypertensive activity (in words)” value [3] was “possess anti-hypertensive activity; also recorded: significant dose-dependent drop in the SAP; also recorded: clear and pronounced anti-hypertensive effect; also recorded: display anti-hypertensive activity”. For the same molecule, the “ACEI activity in vitro (in words)” value [1] was “potent ACEI activity”.

For `CC(C)C[C@H](NC(=O)[C@H](Cc1ccccc1)NC(=O)[C@@H]1CCCN1C(=O)[C@H](Cc1c[nH]cn1)NC(=O)[C@H](CC(=O)O)NC(=O)[C@H](C)NC(=O)[C@@H](N)CCCNC(=N)N)C(=O)O` [SEQ. ID. N^o 3, RADHPFL] (H-RADHPFL-OH; N-terminus and C-terminus assumed), the “change in SAP in normotense rats (in words)” value [2] was “not in normotensed Wistar-Kyoto rats; also recorded: none of these compounds modifies the SAP”, the “time of maximum drop in SAP after administration” value [3] was 6 h and the “drop in systolic arterial pressure (SAP) / anti-hypertensive activity (in words)” value [3] was “possess anti-hypertensive activity; also recorded: significant dose-dependent drop in the SAP; also recorded: clear and pronounced anti-hypertensive effect; also recorded: display anti-hypertensive activity”. The “ACEI activity in vitro (in words)” value [1] was “potent ACEI activity” and the IC50 [1] was 6.2 µM.

In the case of `CC[C@H](C)[C@H](NC(=O)[C@H](CC(=O)O)NC(=O)[C@@H](N)CCCNC(=N)N)C(=O)N[C@@H](CC(C)C)C(=O)N[C@@H](CC(N)=O)C(=O)N[C@@H](CCC(N)=O)C(=O)O` [SEQ. ID. N^o 7, RDILNQ] (H-RDILNQ-OH), the IC50 [1] is reported as 436 µM.

`CSCC[C@H](NC(=O)[C@H](C)NC(=O)[C@H](CC(C)C)NC(=O)[C@H](C)NC(=O)[C@@H](N)CO)C(=O)O` [SEQ. ID. N^o 8, SALAM] (H-SALAM-OH) showed an IC50 [1] of 229 µM.

For `CC[C@H](C)[C@H](NC(=O)[C@H](CO)NC(=O)[C@@H](N)CCC(=O)O)C(=O)N[C@H](C(=O)N[C@@H](CC(N)=O)C(=O)N[C@@H](Cc1ccccc1)C(=O)O)[C@@H](C)CC` [SEQ. ID. N^o 12, ESIINF] (H-ESIINF-OH), the IC50 [1] was greater than 1000 µM.

`CC(C)C[C@H](NC(=O)CNC(=O)[C@H](CO)NC(=O)[C@@H](NC(=O)[C@H](CCC(=O)O)NC(=O)[C@H](CC(=O)O)NC(=O)[C@@H]1CCCN1C(=O)[C@H](CC(C)C)NC(=O)[C@H](CC(C)C)NC(=O)[C@@H](N)C(C)C)C(C)C)C(=O)O` [SEQ. ID. N^o 13] (H-VLLPDEVSGL-OH) showed an IC50 [1] greater than 1000 µM.

`CC[C@H](C)[C@H](NC(=O)[C@H](CC(C)C)NC(=O)[C@@H](N)CCC(=O)O)C(=O)N[C@@H](CC(N)=O)C(=O)O` [SEQ. ID. N^o 14, ELIN] (H-ELIN-OH) gave an IC50 [1] greater than 1000 µM.

`CC[C@H](C)[C@H](NC(=O)[C@@H]1CCCN1C(=O)[C@H](CCC(=O)O)NC(=O)[C@H](CC(C)C)NC(=O)CNC(=O)CNC(=O)[C@H](CCCNC(=N)N)NC(=O)[C@@H](N)Cc1ccc(O)cc1)C(=O)N[C@@H](CC(N)=O)C(=O)N[C@@H](Cc1ccccc1)C(=O)O` [SEQ. ID. N^o 15] (H-YRGGLEPINF-OH) showed an IC50 [1] greater than 1000 µM.

B1: unhydrolysed ovalbumin: ovalbumin grade VI (99% purity) (Sigma), unhydrolysed (protein)
chain: GSIGAASMEFCFDVFKELKVHHANENIFYCPIAIMSALAMVYLGAKDSTRTQINKVVRFDKLPGFGDSIEAQCGTSVNVHSSLRDILNQITKPNDVYSFSLASRLYAEERYPILPEYLQCVKELYRGGLEPINFQTAADQARELINSWVESQTNGIIRNVLQPSSVDSQTAMVLVNAIVFKGLWEKAFKDEDTQAMPFRVTEQESKPVQMMYQIGLFRVASMASEKMKILELPFASGTMSMLVLLPDEVSGLEQLESIINFEKLTEWTSSNVMEERKIKVYLPRMKMEEKYNLTSVLMAMGITDVFSSSANLSGISSAESLKISQAVHAAHAEINEAGREVVGSAEAGVDAASVSEEFRADHPFLFCIKHIATNAVLFFGRCVSP
For B1, the “ACEI activity IC50” value ([1]; protein concentration, product as such) was greater than 750 µg/mL.
